Measurements from patent US8389739B1, “Modulators of retinoid-related orphan receptor gamma” (Orphagen Pharmaceuticals, priority 2006, dated 2013).

Tests used:
[1] = target: T1, hPPARδ (Homo sapiens, UniProt Q03181); experiment: Crossreactive receptor transcriptional assay (Gal4 hybrid); assay type: cell-based
T1 construct: 138-441; expressed in transfected cells; host or cells: CHO cells, transient transfection
T1 sequence (Q03181 138-441): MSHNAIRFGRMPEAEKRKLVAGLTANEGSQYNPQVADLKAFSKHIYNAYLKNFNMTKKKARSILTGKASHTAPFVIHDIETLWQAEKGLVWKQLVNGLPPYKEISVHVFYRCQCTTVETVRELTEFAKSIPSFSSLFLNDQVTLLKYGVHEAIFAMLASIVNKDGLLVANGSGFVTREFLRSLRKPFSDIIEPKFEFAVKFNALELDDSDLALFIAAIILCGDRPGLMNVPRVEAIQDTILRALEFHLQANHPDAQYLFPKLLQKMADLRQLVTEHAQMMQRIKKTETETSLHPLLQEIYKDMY
Description: A firefly luciferase reporter gene for Gal4 DBD hybrid receptors, such as Gal4-RORγ, contains five copies of the Gal4 17-mer response element in its promoter and the coding sequence for firefly luciferase (pG5-luc, Promega). CHO (Chinese Hamster Ovary) cells were cultured in Ham's F12 medium supplemented with 10% fetal calf serum (Gemini Biologicals), 10 μg/ml penicillin and streptomycin, and were maintained in a humidified 37° C. incubator (Thermo Electron, Steri-Cycle) with 5% CO2. 24 hours before transfection, cells were plated in T175 flasks (5×10^6 cells/flask) or T75 flasks (1.7×10^6 cells/flask). Transient transfection of CHO cells was performed using TransIT-CHO reagents (Minis, Madison, Wis.) with a mixing ratio of 2:6:1 between plasmid DNA (in μg), TransIT-CHO (in μl) and CHO-mojo (in μl).
Plates are maintained at 37° C. in a humidified atmosphere with 7% CO2 overnight. Four (4) hours after cell seeding, compounds dissolved in DMSO at 10 mM were added to cells at final concentrations of 20 micromolar (μM) to 20 nanomolar (nM) in 0.2% DMSO in triplicate plates. Approximately 40 hours later, cytotoxicity in the assay well was characterized by addition of the dye resazurin (O'Brien, Wilson et al. 2000) to a final concentration of 3 μM. […] Percent viability was determined as 2 hour fluorescence, minus background at t=0 hours, normalized to DMSO controls. For detection of luciferase activity, media was removed from plates after the measurement of resazurin conversion, and SteadyLite luciferase reagent (Perkin-Elmer) was added (30 μl/well). Luminescence is detected with a Victor 2-V plate reader (Perkin-Elmer) and normalized to luciferase activity of DMSO control wells alone.

[2] = test system: liver triglycerides; experiment: Liver triglycerides after oral dosing in C57BL/6 mice; assay type: in vivo; settings: Dex 12.5 mg/kg once 2 days before necropsy
Description: […] A small piece of the liver (˜200 mg) was weighed and extracted to determine triglyceride content. Glycerol was liberated from liver triglycerides by hydrolysis in base. The liver fragment was incubated overnight at 55° C. in 0.35 mls of ethanolic KOH (2 parts EtOH: 1 part 30% KOH) in a closed tube. A solution of 50% ethanol in water was added to bring the volume of each tube to 1.0 ml. The solution was cleared of debris by centrifugation, and the resulting supernatant increased to 1.2 ml with further addition of 50% ethanol. Aqueous 1 M MgCl2 (215 μl) was added to 200 μl of the supernatant, and the mixture was cleared by centrifugation again after standing 10 min on ice. Glycerol levels were measured with the Sigma Free Glycerol Reagent (Sigma-Aldrich, St. Louis, Mo.) according to the manufacturer's instructions. The triglyceride concentration (in milligrams per gram of liver wet weight) was determined by assuming average molecular weight of 1000 daltons for each molecule of triglyceride.

[3] = test system: thymocytes; experiment: Thymus weight and thymocyte subpopulations after oral dosing in C57BL/6 mice; assay type: in vivo
Description: In addition, the total number and the fraction of the major thymocyte subpopulations including CD4^+CD8^+ (DP), CD4^+CD8^- (SP4^+) and CD4^-CD8^+ (SP8^+) were measured by cell surface staining followed by FACS analysis. […] The volume of cells was adjusted to 8 mls. Debris from the thymus was allowed to settle, and a 200 μl aliquot of cells was incubated with fluorescent antibodies to CD4 and CD8 for 15 minutes at room temperature. […] Before analytical flow cytometry was carried out (FACS Calibur, Becton Dickinson), Caltag counting beads (from Invitrogen) were added to allow absolute quantitation of cell number. Thymus subpopulations were determined after gating for live cells. […] Dexamethasone reproducibly induces rapid apoptosis of DP thymocytes and reduction of thymic mass ([…], Drupt et al. 2000; Zubkova, Mostowski et al. 2005).

[4] = test system: TH1 cell differentiation from naïve CD4+ T cells; experiment: Differentiation of naïve CD4+ T cells with IL-12 (Th-1 protocol), IFN-γ staining by FACS; assay type: cell-based, mouse; settings: Table 8; 10 ng/ml; naïve CD4 cells, 5 days; mean ±SD; no cytokine 0.21
[5] = Dex 12.5 mg/kg once 2 days before necropsy

Molecule `CC(C)(Oc1ccc(CCNC(=O)c2ccc(Cl)cc2)cc1)C(=O)O` [Bezafibrate, bezafibrate, reference compound] has an EC50 [1] of over 20 µM.

In the case of `C[C@@H]1C[C@H]2[C@@H]3CCC4=CC(=O)C=C[C@]4(C)[C@@]3(F)[C@@H](O)C[C@]2(C)[C@@]1(O)C(=O)CO` [Dexamethasone, dexamethasone], the “Liver triglycerides” value [2] is reported as 35.3 ± 8.2 mg/g, the “Frequency of DP (% of total cells)” value [3, 5] is reported as 4.2 ± 2.9% and the “Thymus weight” value [3, 5] is reported as 49.7 µg. For the same molecule, the “Total cells per thymus (×10^−6) DP” value [3, 5] was 1.0 ×10^−6, the “Total cells per thymus (×10^−6) SP4” value [3, 5] was 3.9 ×10^−6 and the “Total cells per thymus (×10^−6) SP8” value [3, 5] was 1.2 ×10^−6. For the same molecule, the “effect on DP thymocytes, in words” value ([3]; dexamethasone positive control, once two days before sacrifice) was “virtually total depletion of DP thymocytes”.

B1: IL-12: exogenous cytokine, stimulates TH1 differentiation (protein, UniProt P29459 23-219; P29460 23-328, looked up)
Interleukin-12 subunit alpha: RNLPVATPDPGMFPCLHHSQNLLRAVSNMLQKARQTLEFYPCTSEEIDHEDITKDKTSTVEACLPLELTKNESCLNSRETSFITNGSCLASRKTSFMMALCLSSIYEDLKMYQVEFKTMNAKLLMDPKRQIFLDQNMLAVIDELMQALNFNSETVPQKSSLEEPDFYKTKIKLCILLHAFRIRAVTIDRVMSYLNAS
Interleukin-12 subunit beta: IWELKKDVYVVELDWYPDAPGEMVVLTCDTPEEDGITWTLDQSSEVLGSGKTLTIQVKEFGDAGQYTCHKGGEVLSHSLLLLHKKEDGIWSTDILKDQKEPKNKTFLRCEAKNYSGRFTCWWLTTISTDLTFSVKSSRGSSDPQGVTCGAATLSAERVRGDNKEYEYSVECQEDSACPAAEESLPIEVMVDAVHKLKYENYTSSFFIRDIIKPDPPKNLQLKPLKNSRQVEVSWEYPDTWSTPHSYFSLTFCVQVQGKSKREKKDRVFTDKTSATVICRKNASISVRAQDRYYSSSWSEWASVPCS
In the case of B1, the “IL-17 (%)” value [4] is reported as 0.09 ± 0.01%.
